Patent US10906873B2, “Substituted cyclic amides as herbicides” (FMC Corporation, priority 2015, dated 2021)

Experiments:
Format in all cases: in vivo
[1] = test system: barnyardgrass (Echinochloa crus-galli); assay: Test A preemergence, barnyardgrass; settings: 0 to 100 scale
Summary of the method: (§1)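 Seeds sown in loam–sand blend received a directed soil spray preemergence; postemergence plants (2–10 cm, one- to two-leaf stage) were sprayed with test chemicals in non-phytotoxic solvent with surfactant. After about 10 d in greenhouse, injury was scored visually versus untreated controls, 0 (no effect) to 100 (complete control).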

kochia (Kochia scoparia) [2] = assay: Test A preemergence, kochia; settings: 0 to 100 scale
Summary of the method: as §1

[3] = test system: ragweed (common ragweed, Ambrosia elatior); assay: Test A preemergence, ragweed; settings: 0 to 100 scale
Summary of the method: as §1

[4] = test system: ryegrass, It. (Italian ryegrass, Lolium multiflorum); assay: Test A preemergence, ryegrass, It.; settings: 0 to 100 scale
Summary of the method: as §1

[5] = test system: foxtail, giant (giant foxtail, Setaria faberii); assay: Test A preemergence, foxtail, giant; settings: 0 to 100 scale
Summary of the method: as §1

[6] = test system: pigweed (Amaranthus retroflexus); assay: Test A preemergence, pigweed; settings: 0 to 100 scale
Summary of the method: as §1

[7] = test system: barnyardgrass (Echinochloa crus-galli); assay: Test A postemergence, barnyardgrass; settings: 0 to 100 scale
Summary of the method: as §1

kochia (Kochia scoparia) [8] = assay: Test A postemergence, kochia; settings: 0 to 100 scale
Summary of the method: as §1

[9] = test system: ragweed (common ragweed, Ambrosia elatior); assay: Test A postemergence, ragweed; settings: 0 to 100 scale
Summary of the method: as §1

[10] = test system: ryegrass, It. (Italian ryegrass, Lolium multiflorum); assay: Test A postemergence, ryegrass, It.; settings: 0 to 100 scale
Summary of the method: as §1

[11] = test system: foxtail, giant (giant foxtail, Setaria faberii); assay: Test A postemergence, foxtail, giant; settings: 0 to 100 scale
Summary of the method: as §1

[12] = test system: wheat (Triticum aestivum); assay: Test A postemergence, wheat; settings: 0 to 100 scale
Summary of the method: as §1

corn (Zea mays) = assay: Test A postemergence, corn; settings: 0 to 100 scale
Summary of the method: as §1

[13] = test system: pigweed (Amaranthus retroflexus); assay: Test A postemergence, pigweed; settings: 0 to 100 scale
Summary of the method: as §1

[14] = test system: blackgrass (Alopecurus myosuroides); assay: Test A postemergence, blackgrass; settings: 0 to 100 scale
Summary of the method: as §1

[15] = test system: galium (catchweed bedstraw, Galium aparine); assay: Test A postemergence, galium; settings: 0 to 100 scale
Summary of the method: as §1

[16] = test system: barnyardgrass (Echinochloa crus-galli); assay: Test B flooded paddy test, barnyardgrass; settings: Flood, 500 g ai/ha; scale of 0 to 100 where 0 is no effect and 100 is complete control; 13 to 15 d
Summary of the method: (§2)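 Plants at the 2-leaf stage were flooded to 3 cm above soil, and test compounds were applied directly into the paddy water, which was held at that depth throughout. After 13 to 15 d in a greenhouse, injury was rated visually against untreated controls on a 0–100 scale (0 no effect, 100 complete control).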

[17] = test system: ducksalad (Heteranthera limosa); assay: Test B flooded paddy test, ducksalad; settings: Flood, 500 g ai/ha; scale of 0 to 100 where 0 is no effect and 100 is complete control; 13 to 15 d
Summary of the method: as §2

rice (Oryza sativa) = assay: Test B flooded paddy test, rice; settings: Flood, 500 g ai/ha; scale of 0 to 100 where 0 is no effect and 100 is complete control; 13 to 15 d
Summary of the method: as §2

[18] = test system: sedge, umbrella (small-flower umbrella sedge, Cyperus difformis); assay: Test B flooded paddy test, sedge, umbrella; settings: Flood, 500 g ai/ha; scale of 0 to 100 where 0 is no effect and 100 is complete control; 13 to 15 d
Summary of the method: as §2

| Structure (SMILES) | Plant response rating, Barnyardgrass ([1]; 125 g ai/ha) | Plant response rating, Barnyardgrass ([1]; 500 g ai/ha) | Plant response rating, Kochia (kochia (Kochia scoparia) [2]; 125 g ai/ha) | Plant response rating, Kochia (kochia (Kochia scoparia) [2]; 500 g ai/ha) | Plant response rating, Ragweed ([3]; 125 g ai/ha) | Plant response rating, Ragweed ([3]; 500 g ai/ha) | Plant response rating, Ryegrass, It. ([4]; 125 g ai/ha) | Plant response rating, Ryegrass, It. ([4]; 500 g ai/ha) | Plant response rating, Foxtail, Giant ([5]; 125 g ai/ha) | Plant response rating, Foxtail, Giant ([5]; 500 g ai/ha) | Plant response rating, Pigweed ([6]; 125 g ai/ha) | Plant response rating, Pigweed ([6]; 500 g ai/ha) | Plant response rating, Barnyardgrass ([7]; 125 g ai/ha) | Plant response rating, Barnyardgrass ([7]; 500 g ai/ha) | Plant response rating, Kochia (kochia (Kochia scoparia) [8]; 125 g ai/ha) | Plant response rating, Kochia (kochia (Kochia scoparia) [8]; 500 g ai/ha) | Plant response rating, Ragweed ([9]; 125 g ai/ha) | Plant response rating, Ragweed ([9]; 500 g ai/ha) | Plant response rating, Ryegrass, It. ([10]; 125 g ai/ha) | Plant response rating, Ryegrass, It. ([10]; 500 g ai/ha) | also measured |
| --- | --- | --- | --- | --- | --- | --- | --- | --- | --- | --- | --- | --- | --- | --- | --- | --- | --- | --- | --- | --- | --- |
| O=C1NCC(Cc2cccc(F)c2F)C1C(=O)Nc1ccccc1C(F)(F)F (stereo not drawn) [Compound 10] | 0 | 0 | 0 | 0 | 0 | 0 | 0 | 0 | 0 | 0 | 0 | 0 | 0 | 0 | 0 | 0 | 0 | 0 | 0 | 0 | Plant response rating, Foxtail, Giant ([11]; 125 g ai/ha): 0; Plant response rating, Foxtail, Giant ([11]; 500 g ai/ha): 0; Plant response rating, Wheat ([12]; 125 g ai/ha): 0; Plant response rating, Wheat ([12]; 500 g ai/ha): 0; Plant response rating, Corn (corn (Zea mays); 125 g ai/ha): 0; Plant response rating, Corn (corn (Zea mays); 500 g ai/ha): 0; Plant response rating, Pigweed ([13]; 125 g ai/ha): 0; Plant response rating, Pigweed ([13]; 500 g ai/ha): 0; Plant response rating, Blackgrass ([14]; 125 g ai/ha): 0; Plant response rating, Blackgrass ([14]; 500 g ai/ha): 0; Plant response rating, Galium ([15]; 125 g ai/ha): 0; Plant response rating, Galium ([15]; 500 g ai/ha): 0; Plant response rating, Barnyardgrass [16]: 0; Plant response rating, Ducksalad [17]: 0; Plant response rating, Rice (rice (Oryza sativa)): 0; Plant response rating, Sedge, Umbrella [18]: 0 |
| O=C(CCC1CNC(=O)C1C(=O)Nc1ccccc1F)Nc1ccc(F)cc1 (stereo not drawn) [Compound 15] | 0 | 0 | 0 | 0 | 0 | 0 | 0 | 0 | 0 | 0 | 0 | 0 | 0 | 0 | 0 | 0 | 0 | 0 | 0 | 0 | Plant response rating, Foxtail, Giant ([11]; 125 g ai/ha): 0; Plant response rating, Foxtail, Giant ([11]; 500 g ai/ha): 0; Plant response rating, Wheat ([12]; 125 g ai/ha): 0; Plant response rating, Wheat ([12]; 500 g ai/ha): 0; Plant response rating, Corn (corn (Zea mays); 125 g ai/ha): 0; Plant response rating, Corn (corn (Zea mays); 500 g ai/ha): 0; Plant response rating, Pigweed ([13]; 125 g ai/ha): 0; Plant response rating, Pigweed ([13]; 500 g ai/ha): 0; Plant response rating, Blackgrass ([14]; 125 g ai/ha): 0; Plant response rating, Blackgrass ([14]; 500 g ai/ha): 0; Plant response rating, Galium ([15]; 125 g ai/ha): 0; Plant response rating, Galium ([15]; 500 g ai/ha): 0; Plant response rating, Barnyardgrass [16]: 0; Plant response rating, Ducksalad [17]: 70; Plant response rating, Rice (rice (Oryza sativa)): 0; Plant response rating, Sedge, Umbrella [18]: 0 |
